Publication PMC4412958 (The Open Medicinal Chemistry Journal, 2015)

Molecular target: BACE-1 (Homo sapiens, UniProt P56817)
Assay: BACE-1 enzyme assay
Type: biochemical
Settings: Boc-protected compound; enzyme- and cell-based screening

Chain of BACE-1 (P56817 46-501): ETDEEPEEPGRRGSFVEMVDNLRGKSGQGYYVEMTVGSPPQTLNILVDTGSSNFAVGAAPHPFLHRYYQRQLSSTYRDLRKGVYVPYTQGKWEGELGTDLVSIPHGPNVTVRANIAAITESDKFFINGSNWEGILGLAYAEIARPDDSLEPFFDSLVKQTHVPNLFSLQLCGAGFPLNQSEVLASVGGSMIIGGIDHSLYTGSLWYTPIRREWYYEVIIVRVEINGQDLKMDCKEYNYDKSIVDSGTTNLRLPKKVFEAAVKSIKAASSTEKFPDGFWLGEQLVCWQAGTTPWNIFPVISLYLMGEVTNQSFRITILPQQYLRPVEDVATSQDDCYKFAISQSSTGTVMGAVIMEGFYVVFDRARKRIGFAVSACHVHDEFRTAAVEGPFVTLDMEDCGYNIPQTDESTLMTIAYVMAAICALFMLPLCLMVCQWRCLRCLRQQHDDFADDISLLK

Cc1cc2cc(c1)C(=O)N[C@H]([C@H](O)CN(Cc1cccc(C(C)C)c1)C(=O)OC(C)(C)C)CCC/C=C/CCCC2=O [Compound 27b, (R)-2-Hydroxy-2-((E)-(S)-16-methyl-2,13-dioxo-3-aza-bicyclo[12.3.1]octadeca-1(17),8,14(18),15-tetraen-4-yl)-ethyl-(3-isopropyl-benzyl)-carbamic acid tert-butyl ester]
BACE-1 activity (in words): inactive
